Experimental data as given in ChEMBL document CHEMBL3885881, “DrugMatrix”.

Organism: Rattus norvegicus
Assay: DrugMatrix - Regimen: Daily Repeat
Format: toxicity, organism-based, Sprague-Dawley
Parameters: regimen Daily Repeat, gender Male, age 6-8 weeks
Conditions: in vivo, po, route oral GAVAGE, vehicle 100 % WATER; for ABSOLUTE BASOPHIL / ABSOLUTE EOSINOPHIL / ABSOLUTE LYMPHOCYTE / ABSOLUTE MONOCYTE / ABSOLUTE SEGMENTED NEUTROPHIL / BASOPHIL / EOSINOPHIL / ERYTHROCYTE COUNT / HEMATOCRIT / HEMOGLOBIN / LEUKOCYTE COUNT / LYMPHOCYTE / MEAN CORPUSCULAR HEMOGLOBIN / MEAN CORPUSCULAR HEMOGLOBIN CONCENTRATION / MEAN CORPUSCULAR VOLUME / MONOCYTE / NEUTROPHIL / NUCLEATED RED BLOOD CELLS / PLATELET COUNT: tissue Blood; for ALANINE AMINOTRANSFERASE / ALBUMIN / ALKALINE PHOSPHATASE / ASPARTATE AMINOTRANSFERASE / BLOOD UREA NITROGEN / CARBON DIOXIDE / CHLORIDE / CHOLESTEROL / CREATINE PHOSPHOKINASE / CREATININE / GLUCOSE / LACTATE DEHYDROGENASE / LIPASE / PHOSPHORUS / POTASSIUM / SODIUM / TOTAL BILIRUBIN / TOTAL PROTEIN / URIC ACID: tissue Plasma
[1] = 58 mg/kg, 120 h, dose level Low, time 5 day
[2] = 1400 mg/kg, 72 h, dose level High, time 3 day
[3] = 1400 mg/kg, 120 h, dose level High, time 5 day

For Cc1cn([C@H]2C=C[C@@H](CO)O2)c(=O)[nH]c1=O [STAVUDINE], the “ABSOLUTE BASOPHIL” value [1] was 0 CELLS/uL, the “ABSOLUTE EOSINOPHIL” value [1] was 94.33 CELLS/uL and the “ABSOLUTE LYMPHOCYTE” value [1] was 9260.33 CELLS/uL. For the same compound, the “ABSOLUTE MONOCYTE” value [1] was 0 CELLS/uL, the “ABSOLUTE SEGMENTED NEUTROPHIL” value [1] was 878.67 CELLS/uL and the BASOPHIL [1] was 0%. For the same compound, the EOSINOPHIL [1] was 1%, the “ERYTHROCYTE COUNT” value [1] was 5.68 x10E6/uL and the HEMATOCRIT [1] was 35.3%. For the same compound, the HEMOGLOBIN [1] was 13.67 G/DL, the “LEUKOCYTE COUNT” value [1] was 10.23 x10E3/uL and the LYMPHOCYTE [1] was 90%. The “MEAN CORPUSCULAR HEMOGLOBIN” value [1] was 24.17 pg, the “MEAN CORPUSCULAR HEMOGLOBIN CONCENTRATION” value [1] was 38.73 G/DL and the “MEAN CORPUSCULAR VOLUME” value [1] was 62.33 fL. The MONOCYTE [1] was 0%, the NEUTROPHIL [1] was 9% and the “NUCLEATED RED BLOOD CELLS” value [1] was 0.33 /100WBC. The “PLATELET COUNT” value [1] was 999.33 x10E3/uL, the “ALANINE AMINOTRANSFERASE” value [1] was 49 u/L and the ALBUMIN [1] was 4.1 G/DL. For the same compound, the “ALKALINE PHOSPHATASE” value [1] was 425 u/L, the “ASPARTATE AMINOTRANSFERASE” value [1] was 86.33 u/L and the “BLOOD UREA NITROGEN” value [1] was 14.33 mg/dL. The “CARBON DIOXIDE” value [1] was 28.33 mmol/L, the CHLORIDE [1] was 104 MEQ/L and the CHOLESTEROL [1] was 72.33 mg/dL. For the same compound, the “CREATINE PHOSPHOKINASE” value [1] was 506.33 u/L, the CREATININE [1] was 0.15 mg/dL and the GLUCOSE [1] was 173.33 mg/dL. For the same compound, the “LACTATE DEHYDROGENASE” value [1] was 155.33 u/L, the LIPASE [1] was 8.67 u/L and the PHOSPHORUS [1] was 11.87 mg/dL. For the same compound, the POTASSIUM [1] was 5.3 MEQ/L, the SODIUM [1] was 146.7 MEQ/L and the “TOTAL BILIRUBIN” value [1] was 0.17 mg/dL. The “TOTAL PROTEIN” value [1] was 6.03 G/DL, the “URIC ACID” value [1] was 0.67 mg/dL and the “ABSOLUTE BASOPHIL” value [2] was 0 CELLS/uL. For the same compound, the “ABSOLUTE EOSINOPHIL” value [2] was 0 CELLS/uL, the “ABSOLUTE LYMPHOCYTE” value [2] was 15246 CELLS/uL and the “ABSOLUTE MONOCYTE” value [2] was 148.33 CELLS/uL. For the same compound, the “ABSOLUTE SEGMENTED NEUTROPHIL” value [2] was 1072.33 CELLS/uL, the BASOPHIL [2] was 0% and the EOSINOPHIL [2] was 0%. For the same compound, the “ERYTHROCYTE COUNT” value [2] was 5.98 x10E6/uL, the HEMATOCRIT [2] was 37.4% and the HEMOGLOBIN [2] was 14.87 G/DL. For the same compound, the “LEUKOCYTE COUNT” value [2] was 16.47 x10E3/uL, the LYMPHOCYTE [2] was 92.67% and the “MEAN CORPUSCULAR HEMOGLOBIN” value [2] was 24.9 pg. For the same compound, the “MEAN CORPUSCULAR HEMOGLOBIN CONCENTRATION” value [2] was 39.77 G/DL, the “MEAN CORPUSCULAR VOLUME” value [2] was 62.67 fL and the MONOCYTE [2] was 1%. For the same compound, the NEUTROPHIL [2] was 6.33%, the “NUCLEATED RED BLOOD CELLS” value [2] was 0 /100WBC and the “PLATELET COUNT” value [2] was 998.33 x10E3/uL. For the same compound, the “ALANINE AMINOTRANSFERASE” value [2] was 113.67 u/L, the ALBUMIN [2] was 3.93 G/DL and the “ALKALINE PHOSPHATASE” value [2] was 510.67 u/L. The “ASPARTATE AMINOTRANSFERASE” value [2] was 191 u/L, the “BLOOD UREA NITROGEN” value [2] was 12.33 mg/dL and the “CARBON DIOXIDE” value [2] was 27 mmol/L. For the same compound, the CHLORIDE [2] was 100.67 MEQ/L, the CHOLESTEROL [2] was 97.33 mg/dL and the “CREATINE PHOSPHOKINASE” value [2] was 237.67 u/L. The CREATININE [2] was 0.15 mg/dL, the GLUCOSE [2] was 155 mg/dL and the “LACTATE DEHYDROGENASE” value [2] was 355 u/L. The LIPASE [2] was 11.33 u/L, the PHOSPHORUS [2] was 12.77 mg/dL and the POTASSIUM [2] was 6.93 MEQ/L. For the same compound, the SODIUM [2] was 142.73 MEQ/L, the “TOTAL BILIRUBIN” value [2] was 0.23 mg/dL and the “TOTAL PROTEIN” value [2] was 5.63 G/DL. The “URIC ACID” value [2] was 1.47 mg/dL, the “ABSOLUTE BASOPHIL” value [3] was 0 CELLS/uL and the “ABSOLUTE EOSINOPHIL” value [3] was 247.33 CELLS/uL. For the same compound, the “ABSOLUTE LYMPHOCYTE” value [3] was 16216.67 CELLS/uL, the “ABSOLUTE MONOCYTE” value [3] was 311.33 CELLS/uL and the “ABSOLUTE SEGMENTED NEUTROPHIL” value [3] was 2358 CELLS/uL. For the same compound, the BASOPHIL [3] was 0%, the EOSINOPHIL [3] was 1.33% and the “ERYTHROCYTE COUNT” value [3] was 5.64 x10E6/uL. The HEMATOCRIT [3] was 35.57%, the HEMOGLOBIN [3] was 13.87 G/DL and the “LEUKOCYTE COUNT” value [3] was 19.13 x10E3/uL. The LYMPHOCYTE [3] was 84.67%, the “MEAN CORPUSCULAR HEMOGLOBIN” value [3] was 24.6 pg and the “MEAN CORPUSCULAR HEMOGLOBIN CONCENTRATION” value [3] was 39 G/DL. For the same compound, the “MEAN CORPUSCULAR VOLUME” value [3] was 63.1 fL, the MONOCYTE [3] was 1.67% and the NEUTROPHIL [3] was 12.33%. The “NUCLEATED RED BLOOD CELLS” value [3] was 0 /100WBC, the “PLATELET COUNT” value [3] was 1296.67 x10E3/uL and the “ALANINE AMINOTRANSFERASE” value [3] was 50.33 u/L. The ALBUMIN [3] was 4.17 G/DL, the “ALKALINE PHOSPHATASE” value [3] was 429.33 u/L and the “ASPARTATE AMINOTRANSFERASE” value [3] was 75 u/L. The “BLOOD UREA NITROGEN” value [3] was 14.67 mg/dL, the “CARBON DIOXIDE” value [3] was 23 mmol/L and the CHLORIDE [3] was 102 MEQ/L. The CHOLESTEROL [3] was 81.67 mg/dL, the “CREATINE PHOSPHOKINASE” value [3] was 207 u/L and the CREATININE [3] was 0.21 mg/dL. For the same compound, the GLUCOSE [3] was 162 mg/dL, the “LACTATE DEHYDROGENASE” value [3] was 128.33 u/L and the LIPASE [3] was 11.67 u/L. It also gave a PHOSPHORUS [3] of 11 mg/dL, a POTASSIUM [3] of 5.59 MEQ/L and an SODIUM [3] of 145 MEQ/L. For the same compound, the “TOTAL BILIRUBIN” value [3] was 0.2 mg/dL, the “TOTAL PROTEIN” value [3] was 5.8 G/DL and the “URIC ACID” value [3] was 1.77 mg/dL.
